Source: patent US11014895B2, “Heterocyclic urea compound, and drug composition and application thereof” (CHINA PHARMACEUTICAL UNIVERSITY, priority 2017, dated 2021)

What was measured:
IDO1 enzyme = IDO1 enzyme (Homo sapiens, UniProt P14902); experiment: Determination of biochemical activity of IDO1 enzyme (absorbance at 320 nm); details: room temperature, 3 hours
Protocol: (1) Method for Determining Biochemical Activity of IDO1 Enzyme
Firstly, 15 μl of buffer solution of sodium hydrogen phosphate (PH:7-8), 5 μl of reaction buffer solution containing a proper amount of IDO-1 enzyme and heterocyclic urea compound prepared by the invention were added into wells of a microplate, mixed evenly, and reacted at room temperature for 3 hours; then a light absorption value at 320 nm wavelength was detected by using Envision Multilabel Reader of PE company, an inhibition rate of the heterocyclic urea compound on the enzyme reaction was calculated according to an absorption ratio, and an IC50 value of the heterocyclic urea compound was calculated through analysis by GraphPad.

[1] = molecular target: T1, IDO1 enzyme in the Hela cell (Homo sapiens, UniProt P14902); experiment: Cell activity: interferon γ-stimulated Hela cells, absorbance of supernatant at 480 nm; type: cell-based; details: interferon γ 100 ng/ml, 72 hours
T1 construct: endogenous in cells; host or cells: HeLa cells stimulated with interferon γ (100 ng/ml)
Protocol: (2) Method for Determining Cell Activity
Hela cells were cultured and passaged in a DMEM medium supplemented with antibiotics in a 37° C. CO2 incubator, inoculated into a 96-well plate for overnight culture, then 1 μl of heterocyclic urea compound with appropriate concentration was added to each well, and then 100 μl of interferon γ (final concentration was 100 ng/ml) was added. After the cells were continuously cultured for 72 hours, 70 μl of cell culture supernatant was added to a 96-well V-bottom plate, 5 μl of trichloroacetic acid (6.1 N) was added to each well, incubated at 50° C. for 30 min, then taken out and centrifuged at […] for 10 min. The above centrifuged supernatant was transferred to a 384-well microplate (20 μl/well), then 20 μl of 2% didimethylaminobenzaldehyde acetic acid solution was added to each well, shaken and mixed evenly, then photometric absorption was performed at 480 nm, and values were measured.

T1 sequence (P14902 whole entry): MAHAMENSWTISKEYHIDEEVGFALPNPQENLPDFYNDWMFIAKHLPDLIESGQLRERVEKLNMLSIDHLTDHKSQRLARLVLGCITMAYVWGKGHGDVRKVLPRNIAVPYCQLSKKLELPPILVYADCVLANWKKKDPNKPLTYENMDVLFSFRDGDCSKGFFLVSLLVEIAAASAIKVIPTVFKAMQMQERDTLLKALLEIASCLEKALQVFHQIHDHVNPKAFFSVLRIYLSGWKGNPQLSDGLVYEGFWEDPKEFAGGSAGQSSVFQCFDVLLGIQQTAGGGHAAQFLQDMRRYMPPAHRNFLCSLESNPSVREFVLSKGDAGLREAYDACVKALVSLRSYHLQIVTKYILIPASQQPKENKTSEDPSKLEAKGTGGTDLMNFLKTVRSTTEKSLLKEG
Sequence of IDO1 enzyme (P14902 whole entry): as above

SMILES	IC50 (IDO1 enzyme)	IC50 [1]
O=C(Nc1nonc1/C(=N/O)Nc1ccc(F)cc1)NC1CCC(O)CC1 (centres unmarked) [Embodiment 55]	< 0.001 µM	< 0.001 µM
COc1ccc(NC(=O)Nc2cocc2/C(=N/O)Nc2ccc(F)c(Br)c2)cc1 [Embodiment 58, (Z)-1-(4-(N-(3-bromo-4-fluorophenyl)-N′-hydroxyaminoiminomethyl)-furan-3-substituted)-3-(4-methoxyphenyl)urea]	0.1 to 1 µM	0.1 to 1 µM
COc1cccc(NC(=O)Nc2cocc2/C(=N/O)Nc2ccc(F)c(Br)c2)c1 [Embodiment 59, (Z)-1-(4-(N-(3-bromo-4-fluorophenyl)-N′-hydroxyaminoiminomethyl)-furan-3-substituted)-3-(3-methoxyphenyl)urea]	> 1 µM	> 1 µM
O=C(Nc1cocc1/C(=N/O)Nc1ccc(F)c(Br)c1)NC1CCCCC1 [Embodiment 61, (Z)-1-(4-(N-(3-bromo-4-fluorophenyl)-N′-hydroxyaminoiminomethyl)-furan-3-substituted)-3-cyclohexylurea]	0.1 to 1 µM	0.1 to 1 µM
CCCNC(=O)Nc1cocc1/C(=N/O)Nc1ccc(F)c(Br)c1 [Embodiment 70, (Z)-1-(4-(N-(3-bromo-4-fluorophenyl)-N′-hydroxyaminoiminomethyl)-furan-3-substituted)-3-propylurea]	0.1 to 1 µM	0.1 to 1 µM
CS(=O)(=O)NCCNC(=O)Nc1cocc1/C(=N/O)Nc1ccc(F)c(Br)c1 [Embodiment 72, (Z)-1-(4-(N-(3-bromo-4-fluorophenyl)-N′-hydroxyaminoiminomethyl)-furan-3-substituted)-3-(2-methamidoethyl)urea]	0.1 to 1 µM	0.1 to 1 µM
O=C(Nc1cocc1/C(=N/O)Nc1ccc(F)c(Br)c1)Nc1c[nH]c2ccccc12 [Embodiment 74, (Z)-1-(4-(N-(3-bromo-4-fluorophenyl)-N′-hydroxyaminoiminomethyl)-furan-3-substituted)-3-(3-aminoindole)urea]	0.1 to 1 µM	0.1 to 1 µM
O=C(Nc1cccnc1)Nc1cocc1/C(=N/O)Nc1ccc(F)c(Br)c1 [Embodiment 75, (Z)-1-(4-(N-(3-bromo-4-fluorophenyl)-N′-hydroxyaminoiminomethyl)-furan-3-substituted)-3-(3-aminopyridine)urea]	0.1 to 1 µM	0.1 to 1 µM
O=C(Nc1cc[nH]c1)Nc1cocc1/C(=N/O)Nc1ccc(F)c(Br)c1 [Embodiment 76, (Z)-1-(4-(N-(3-bromo-4-fluorophenyl)-N′-hydroxyaminoiminomethyl)-furan-3-substituted)-3-(1H-pyrrole-3-substituted)urea]	> 1 µM	> 1 µM
O=C(Nc1ccsc1)Nc1cocc1/C(=N/O)Nc1ccc(F)c(Br)c1 [Embodiment 78]	> 1 µM	> 1 µM
COc1cccc(NC(=O)Nc2nocc2/C(=N/O)Nc2ccc(F)c(Br)c2)c1 [Embodiment 80, (Z)-1-(4-(N-(3-bromo-4-fluorophenyl)-N′-hydroxyaminoiminomethyl)-isoxazole-3-substituted)-3-(3-methoxyphenyl)urea]	> 1 µM	> 1 µM
O=C(Nc1nocc1/C(=N/O)Nc1ccc(F)c(Br)c1)NC1CCCC1 [Embodiment 83, (Z)-1-(4-(N-(3-bromo-4-fluorophenyl)-N′-hydroxyaminoiminomethyl)-isoxazole-3-substituted)-3-(cyclopentyl)urea]	> 1 µM	> 1 µM
O=C(Nc1nocc1/C(=N/O)Nc1ccc(F)c(Br)c1)NC1CCC(O)CC1 (centres unmarked) [Embodiment 84, (Z)-1-(4-(N-(3-bromo-4-fluorophenyl)-N′-hydroxyaminoiminomethyl)-isoxazole-3-substituted)-3-(4-hydroxycyclohexyl)urea]	0.1 to 1 µM	0.1 to 1 µM

Further lines, results first:

IC50 (IDO1 enzyme)	IC50 [1]	SMILES
< 0.001 µM	< 0.001 µM	NS(=O)(=O)N1CCN(C(=O)Nc2nonc2/C(=N/O)Nc2ccc(F)cc2)CC1 [Embodiment 56]
> 1 µM	> 1 µM	N#Cc1ccc(NC(=O)Nc2nonc2/C(=N/O)Nc2ccc(F)cc2)cc1 [Embodiment 57, (Z)-1-(4-(N-(4-fluorophenyl)-N′-hydroxyaminoiminomethyl)-1,2,5-oxadiazole-3-substituted)-3-(4-cyanophenyl)urea]
> 1 µM	> 1 µM	O=C(Nc1ccccc1)Nc1cocc1/C(=N/O)Nc1ccc(F)c(Br)c1 [Embodiment 60, (Z)-1-(4-(N-(3-bromo-4-fluorophenyl)-N′-hydroxyaminoiminomethyl)-furan-3-substituted)-3-phenylurea]
0.1 to 1 µM	0.1 to 1 µM	O=C(Nc1cocc1/C(=N/O)Nc1ccc(F)c(Br)c1)NC1CCCC1 [Embodiment 62, (Z)-1-(4-(N-(3-bromo-4-fluorophenyl)-N′-hydroxyaminoiminomethyl)-furan-3-substituted)-3-cyclopentylurea]
< 0.001 µM	< 0.001 µM	O=C(Nc1cocc1/C(=N/O)Nc1ccc(F)c(Br)c1)NC1CCC(O)CC1 (centres unmarked) [Embodiment 63, (Z)-1-(4-(N-(3-bromo-4-fluorophenyl)-N′-hydroxyaminoiminomethyl)-furan-3-substituted)-3-(4-hydroxycyclohexyl)urea]
0.1 to 1 µM	0.1 to 1 µM	O=C(Nc1cocc1/C(=N/O)Nc1ccc(F)c(Br)c1)NC1CCNCC1 [Embodiment 64, (Z)-1-(4-(N-(3-bromo-4-fluorophenyl)-N′-hydroxyaminoiminomethyl)-furan-3-substituted)-3-(piperidine-4-substituted)urea]
0.1 to 1 µM	0.1 to 1 µM	O=C(Nc1cocc1/C(=N/O)Nc1ccc(F)c(Br)c1)NC1CC1 [Embodiment 65]
0.1 to 1 µM	0.1 to 1 µM	NC1CCC(NC(=O)Nc2cocc2/C(=N/O)Nc2ccc(F)c(Br)c2)CC1 (centres unmarked) [Embodiment 66, (Z)-1-(4-(N-(3-bromo-4-fluorophenyl)-N′-hydroxyaminoiminomethyl)-furan-3-substituted)-3-(4-aminocyclohexyl)urea]
0.1 to 1 µM	0.1 to 1 µM	NCCCNC(=O)Nc1cocc1/C(=N/O)Nc1ccc(F)c(Br)c1 [Embodiment 67, (Z)-1-(4-(N-(3-bromo-4-fluorophenyl)-N′-hydroxyaminoiminomethyl)-furan-3-substituted)-3-(3-aminopropyl)urea]
0.1 to 1 µM	0.1 to 1 µM	O=C(NCCO)Nc1cocc1/C(=N/O)Nc1ccc(F)c(Br)c1 [Embodiment 68, (Z)-1-(4-(N-(3-bromo-4-fluorophenyl)-N′-hydroxyaminoiminomethyl)-furan-3-substituted)+3-(2-hydroxyethyl)urea]
0.1 to 1 µM	0.1 to 1 µM	NCCNC(=O)Nc1cocc1/C(=N/O)Nc1ccc(F)c(Br)c1 [Embodiment 69, (Z)-1-(4-(N-(3-bromo-4-fluorophenyl)-N′-hydroxyaminoiminomethyl)-furan-3-substituted)-3-(2-aminoethyl)urea]
0.1 to 1 µM	0.1 to 1 µM	CC(C)NC(=O)Nc1cocc1/C(=N/O)Nc1ccc(F)c(Br)c1 [Embodiment 71, (Z)-1-(4-(N-(3-bromo-4-fluorophenyl)-N′-hydroxyaminoiminomethyl)-furan-3-substituted)-3-isopropylurea]
0.1 to 1 µM	0.1 to 1 µM	O=C(Nc1cocc1/C(=N/O)Nc1ccc(F)c(Br)c1)Nc1cccc2[nH]ccc12 [Embodiment 73, (Z)-1-(4-(N-(3-bromo-4-fluorophenyl)-N′-hydroxyaminoiminomethyl)-furan-3-substituted)-3-(4-aminoindole)urea]
> 1 µM	> 1 µM	O=C(Nc1ccoc1)Nc1cocc1/C(=N/O)Nc1ccc(F)c(Br)c1 [Embodiment 77]
0.1 to 1 µM	0.1 to 1 µM	COc1ccc(NC(=O)Nc2nocc2/C(=N/O)Nc2ccc(F)c(Br)c2)cc1 [Embodiment 79, (Z)-1-(4-(N-(3-bromo-4-fluorophenyl)-N′-hydroxyaminoiminomethyl)-isoxazole-3-substituted)-3-(4-methoxyphenyl)urea]
0.1 to 1 µM	0.1 to 1 µM	O=C(Nc1nocc1/C(=N/O)Nc1ccc(F)c(Br)c1)NC1CCCCC1 [Embodiment 82, (Z)-1-(4-(N-(3-bromo-4-fluorophenyl)-N′-hydroxyaminoiminomethyl)-isoxazole-3-substituted)-3-(cyclohexyl)urea]
< 0.001 µM	< 0.001 µM	O=C(Nc1nocc1/C(=N/O)Nc1ccc(F)c(Br)c1)NC1CCNCC1 [Embodiment 85, (Z)-1-(4-(N-(3-bromo-4-fluorophenyl)-N′-hydroxyaminoiminomethyl)-isoxazole-3-substituted)-3-(piperidine-4-substituted)urea]
> 1 µM	> 1 µM	O=C(Nc1nocc1/C(=N/O)Nc1ccc(F)c(Br)c1)NC1CC1 [Embodiment 86, (Z)-1-(4-(N-(3-bromo-4-fluorophenyl)-N′-hydroxyaminoiminomethyl)-isoxazole-3-substituted)-3-(cyclopropyl)urea]
